In PMC12406198, “Decadentate Acyclic Chelators for Lanthanum Radiopharmaceuticals” (Journal of Medicinal Chemistry, 2025):
Like-named read-outs stand apart in the source and are kept apart here.

Columns and labels:
[1] = Ligand protonation constants by pH-potentiometric titration; type: physicochemical; details: sum of literature protonation constants of related ligands
[2] = literature value, cited from earlier work
[3] = Stability constants of La^3+ complexes by pH potentiometry; type: physicochemical; details: −log[La^3+]free for [L] = 10 μM and [La^3+] = 1 μM at pH 7.4 and 25 °C; from literature constants
Description: The stability constants of the La^3+ complexes were determined using pH potentiometry (I = 0.15 NaCl). A significant amount of the metal ion is not complexed by the TPADAC^4– ligand at the beginning of the titration at pH 1.7 (∼20%), which allows for stability constant determination using potentiometry. In the case of TPAEN^4– the amount of free La^3+ was small (∼4%), but the stability constants could be determined by fitting the titration data using both 1:1 and 1:2 (TPAEN^4–:La^3+) stoichiometries (Figure S1, Supporting Information). The TPADAC^4– ligand also forms complexes with 1:1 and 1:2 stoichiometries (Figure S2, Supporting Information).
The thermodynamic stability of the complexes at physiologically relevant pH was assessed by calculating pLa values, defined as −log[La^3+]free for [L] = 10 μM and [La^3+] = 1 μM at pH 7.4 and 25 °C following the recommendation of Raymond. This is a result of the high stability constants (log K LaL) that characterize the formation of these complexes, as well as the relatively low basicity of these ligands. Indeed, cyclohexyl derivatives TPADAC^4– and CHXOCTAPA^4– display considerably higher basicity than the ethyl analogues, as indicated by the Σ log K i ^H (i = 1–5) values shown in Table . Similarly, DTPA and DO3A derivatives are characterized by rather high basicities, which results in relatively low pLa values.
The pH-potentiometric titrations were carried out with a Methrohm 785 DMP titrator using a Metrohm-6.0233.100 combined electrode. The titrated solutions (5.000 mL) were thermostated at 25 °C and stirred and kept under inert gas atmosphere (N2) to avoid the effect of CO2. The pH-calibration of the electrode was performed using KH-phthalate (pH = 4.005) and borax (pH = 9.177) buffers. The concentrations of the ligand stock solutions were determined by pH-potentiometric titration. The protonation constants of the TPAEN^4– (in the pH range of 2.19–12.00 a total of 213 data pairs by titrating a 2.72 mM a ligand solution) and TPADAC^4– (in the pH range of 1.88–11.85 a total of 208 data pairs by titrating a 2.32 mM ligand solution), the stability and protonation constants of the complexes formed with La^3+ and the formation constants of their dinuclear complexes were determined by pH-potentiometric titration. The metal-to-ligand concentration ratios were 1:1 and 2:1. For the 1:1 ratio a total of 240 data pairs were recorded for a H4TPAEN concentration of 2.29 mM in the pH range of 1.77–11.86, while a total of 222 data pairs were collected in the pH range 1.72–11.85 for a 2.72 mM solution of H4TPADAC. For the 2:1 ratio we collected 259 data pairs for a 2.31 mM solution of H4TPAEN in the pH range of 1.73–11.82, and 259 data pairs for a 2.71 mM concentration of H4TPADAC in the pH range of 1.70–11.85. The calculation of [H^+] from the measured pH values was performed with the use of the method proposed by Irving et al. by titrating a 0.01 M HCl solution (I = 0.15 M NaCl) with a standardized NaOH solution. The differences between the measured and calculated pH values were used to obtain the [H^+] concentrations from the pH-data obtained in the titrations. The ionic product of water was determined from the same experiment in the pH range 11.25–11.85. The protonation and stability constants were calculated from the titration data with the PSEQUAD program. The quality of the fits was assessed with the fitting parameter (FP) calculated by PSEQUAD, which is defined as 2 FP=∑i=1n(Vi,calc−Vi,meas)^2/n−k

[4] = 0.15 M NaCl, cited from earlier work

## O=C(O)CN(Cc1cccc(C(=O)O)n1)[C@@H]1CCCC[C@@H]1N(CC(=O)O)Cc1cccc(C(=O)O)n1 [CHXOCTAPA^4–, 6,6′-((((1R,2S)-cyclohexane-1,2-diyl)bis((carboxymethyl)azanediyl))bis(methylene))dipicolinic acid]
[1]
  Σ log K i ^H (i = 1–5): 24.04
[2]; ref footnote c
  log K 1 ^H: 9.52
  log K 2 ^H: 5.51
  log K 3 ^H: 3.99
  log K 4 ^H: 3.43
  log K 5 ^H: 1.59
  log K 6 ^H: 0.61
[2]; ref footnote d
  log K 1 ^H: 9.23
  log K 2 ^H: 5.40
  log K 3 ^H: 3.94
  log K 4 ^H: 2.24
  log K 5 ^H: 1.82
  log K 6 ^H: 1.91
[3]
  pLa: 16.6
[4]; ref footnote b
  log K LaL: 17.82
  log K LaL ^H: 2.00
  log K LaL ^OH: 12.75

## O=C(O)CN(CCN(CC(=O)O)Cc1cccc(C(=O)O)n1)Cc1cccc(C(=O)O)n1 [OCTAPA^4–, 6,6′-((ethane-1,2-diylbis((carboxymethyl)azanediyl))bis(methylene))dipicolinic acid]
[1]
  Σ log K i ^H (i = 1–5): 22.20
[2]; ref footnote a
  log K 1 ^H: 8.52
  log K 2 ^H: 5.40
  log K 3 ^H: 3.65
  log K 4 ^H: 2.97
  log K 5 ^H: 1.66
[2]; ref footnote b
  log K 1 ^H: 8.58
  log K 2 ^H: 5.43
  log K 3 ^H: 3.75
  log K 4 ^H: 3.08
  log K 5 ^H: 2.21
  log K 6 ^H: 1.61 ^b
[3]
  pLa: 19.7
[4]; ref footnote a
  log K LaL: 19.92
